Source: the supplement of paper PMC11208160

Assay: recombinant UMI read abundance after kanamycin selection (control-corrected) (log10(CPM+1)); higher = more efficient recombination; extreme values may be limits of the assay; sequences stand for … in AGTGCAGAGAAAATCGGCCAGTTTTCTCTGCCTGCAGTCCGCATGCCGTGGGACCCCTTGGGTTCTAACCTGTTGCCTAGATTTATGCAGCGGACTGCCTTTCTCCCAAAGTGATAAACCGG…AGGTTGGTTTCACT; site = the 11-nt donor
Outline: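 Values, expressed as log10(CPM+1), derive from recombinant UMI counts converted to CPM, averaged across replicates and scaled by control-derived factors. Plating was with IPTG (0.07 mM) plus kanamycin or unselected, two replicates each. The screen pooled donor and donor-binding-loop pairs for the IS621 bridge recombinase in Escherichia coli.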
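Further: IS621 bridge recombinase in Escherichia coli cells against a fixed T5 target plasmid.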

“GCGAAGCCATGGACCGGTTTTCCCGGTAATCCGTATTTGGT (site GCGAAGCCTCC)” and “GCGAAGCCATGGACCGGTTTTCCCGGTAATCCGTATTTGGT (site GCGAAGCCTGC)” are within 0.2 log units of each other in “recombinant UMI read abundance (log10)” value: 0.00425 for the first, 0 for the second.

“GCGAAGCCATGGACCGGTTTTCCCGGTAATCCGTATTTGGT (site GCGAAGCCTTC)” and “GCGAAGTCATGGACCGGTTTTCCCGGTAATCCGTATTTGGG (site GCGAAGACTCC)” are within 0.2 log units of each other in “recombinant UMI read abundance (log10)” value: 0.234 for the first, 0.283 for the second.

“GCGAAGTCATGGACCGGTTTTCCCGGTAATCCGTATTTGGG (site GCGAAGCCTCC)” and “GCGAAGTCATGGACCGGTTTTCCCGGTAATCCGTATTTGGG (site GCGAAGGCTCC)” are within 0.2 log units of each other in “recombinant UMI read abundance (log10)” value: 0.0096 for the first, 0.019 for the second.

Going from “GCGAAGTCATGGACCGGTTTTCCCGGTAATCCGTATTTGGG (site GCGAAGTCTCC)” to “GCGACTACATGGACCGGTTTTCCCGGTAATCCGTATTTGGC (site GCGACTACTGC)”, the “recombinant UMI read abundance (log10)” value rises from 1.21 to 1.97.

First: GCGACTGCATGGACCGGTTTTCCCGGTAATCCGTATTTGCC (site GCAACTGCTGG)
Second: GCGACTGCATGGACCGGTTTTCCCGGTAATCCGTATTTGCC (site GCCACTGCTGG)
The “recombinant UMI read abundance (log10)” value of the first is higher: 2 for the first, 0.516 for the second.

First: GCGACTGCATGGACCGGTTTTCCCGGTAATCCGTATTTGCC (site GCGACTGCTGG)
Second: GCGACTGCATGGACCGGTTTTCCCGGTAATCCGTATTTGCC (site GCTACTGCTGG)
The “recombinant UMI read abundance (log10)” value of the first is higher: 1.65 for the first, 0 for the second.

“GCGATGCCATGGACCGGTTTTCCCGGTAATCCGTATTTGGG (site GCGAAGCCTCC)” and “GCGATGCCATGGACCGGTTTTCCCGGTAATCCGTATTTGGG (site GCGACGCCTCC)” are within 0.2 log units of each other in “recombinant UMI read abundance (log10)” value: 0.00846 for the first, 0.0196 for the second.

“GCGATGCCATGGACCGGTTTTCCCGGTAATCCGTATTTGGG (site GCGAGGCCTCC)” and “GCGATGCCATGGACCGGTTTTCCCGGTAATCCGTATTTGGG (site GCGATGCCTCC)” are within 0.2 log units of each other in “recombinant UMI read abundance (log10)” value: 0.0186 for the first, 0.0291 for the second.

First: GCGCAAACATGGACCGGTTTTCCCGGTAATCCGTATTTGCT (site GCGAAAACTAG)
Second: GCGCAAACATGGACCGGTTTTCCCGGTAATCCGTATTTGCT (site GCGCAAACTAG)
The “recombinant UMI read abundance (log10)” value of the first is lower: 0 for the first, 1.59 for the second.

“GCGCAAACATGGACCGGTTTTCCCGGTAATCCGTATTTGCT (site GCGGAAACTAG)” and “GCGCAAACATGGACCGGTTTTCCCGGTAATCCGTATTTGCT (site GCGTAAACTAG)” are the same in “recombinant UMI read abundance (log10)” value: 0 for the first, 0 for the second.

“GCGCCCACATGGACCGGTTTTCCCGGTAATCCGTATTTGTG (site GCGCCCACTCA)” and “GCGCCTACATGGACCGGTTTTCCCGGTAATCCGTATTTGTT (site GCGCCTACTAA)” are within 0.2 log units of each other in “recombinant UMI read abundance (log10)” value: 0.0198 for the first, 0.013 for the second.

“GCGCGAGCATGGACCGGTTTTCCCGGTAATCCGTATTTGGG (site GCGCGAGCTCC)” and “GCGCTCACATGGACCGGTTTTCCCGGTAATCCGTATTTGAT (site GAGCTCACTAT)” are within 0.2 log units of each other in “recombinant UMI read abundance (log10)” value: 0.163 for the first, 0.12 for the second.

Going from “GCGCTCACATGGACCGGTTTTCCCGGTAATCCGTATTTGAT (site GCGCTCACTAT)” to “GCGCTCACATGGACCGGTTTTCCCGGTAATCCGTATTTGAT (site GGGCTCACTAT)”, the “recombinant UMI read abundance (log10)” value falls from 2.21 to 0.00525.

Going from “GCGCTCACATGGACCGGTTTTCCCGGTAATCCGTATTTGAT (site GTGCTCACTAT)” to “GCGGAAGCATGGACCGGTTTTCCCGGTAATCCGTATTTGGT (site GCGGAAGCTAC)”, the “recombinant UMI read abundance (log10)” value rises from 0.28 to 1.72.

First: GCGGATGCATGGACCGGTTTTCCCGGTAATCCGTATTTGAA (site GCGGATGCTTT)
Second: GCGGCACCATGGACCGGTTTTCCCGGTAATCCGTATTTGCA (site GAGGCACCTTG)
The “recombinant UMI read abundance (log10)” value of the first is higher: 2.38 for the first, 0.00511 for the second.

“GCGGCACCATGGACCGGTTTTCCCGGTAATCCGTATTTGCA (site GCGGCACCTTG)” and “GCGGCACCATGGACCGGTTTTCCCGGTAATCCGTATTTGCA (site GGGGCACCTTG)” are within 0.2 log units of each other in “recombinant UMI read abundance (log10)” value: 0 for the first, 0.008 for the second.

Compared with “GCGGCACCATGGACCGGTTTTCCCGGTAATCCGTATTTGCA (site GTGGCACCTTG)”, “GCGGCTACATGGACCGGTTTTCCCGGTAATCCGTATTTGTC (site GCGGCTACTGA)” is higher in “recombinant UMI read abundance (log10)” value: 0 for the first, 2.67 for the second.

Compared with “GCGGCTTCATGGACCGGTTTTCCCGGTAATCCGTATTTGTC (site GCGGCTTCTGA)”, “GCGGGCACATGGACCGGTTTTCCCGGTAATCCGTATTTGTG (site GCGGGCACTCA)” is lower in “recombinant UMI read abundance (log10)” value: 1.81 for the first, 0.836 for the second.

First: GCGGTGCCATGGACCGGTTTTCCCGGTAATCCGTATTTGGC (site GCGGTGCCTGC)
Second: GCGGTGTCATGGACCGGTTTTCCCGGTAATCCGTATTTGAA (site GCGGTGTCTTT)
The “recombinant UMI read abundance (log10)” value of the first is lower: 0 for the first, 2.41 for the second.

Going from “GCGTATTCATGGACCGGTTTTCCCGGTAATCCGTATTTGCC (site GCGTATTCTGG)” to “GCGTATTCATGGACCGGTTTTCCCGGTAATCCGTATTTGTG (site GCGTATTCTCA)”, the “recombinant UMI read abundance (log10)” value rises from 2.14 to 2.49.

“GCGTCGGCATGGACCGGTTTTCCCGGTAATCCGTATTTGGA (site GCGTCGGCTTC)” and “GCGTGCCCATGGACCGGTTTTCCCGGTAATCCGTATTTGAT (site GCATGCCCTAT)” are within 0.2 log units of each other in “recombinant UMI read abundance (log10)” value: 0.519 for the first, 0.417 for the second.

First: GCGTGCCCATGGACCGGTTTTCCCGGTAATCCGTATTTGAT (site GCCTGCCCTAT)
Second: GCGTGCCCATGGACCGGTTTTCCCGGTAATCCGTATTTGAT (site GCGTGCCCTAT)
The “recombinant UMI read abundance (log10)” value of the first is lower: 0.0179 for the first, 0.221 for the second.

First: GCGTGCCCATGGACCGGTTTTCCCGGTAATCCGTATTTGAT (site GCTTGCCCTAT)
Second: GCGTTCTCATGGACCGGTTTTCCCGGTAATCCGTATTTGAA (site GCGTTCTCTTT)
The “recombinant UMI read abundance (log10)” value of the first is lower: 0.0133 for the first, 2.47 for the second.

First: GCTACCTCATGGACCGGTTTTCCCGGTAATCCGTATTTGGC (site GCTACCTCTGC)
Second: GCTACTGCATGGACCGGTTTTCCCGGTAATCCGTATTTGCA (site GCTACTGCTAG)
The “recombinant UMI read abundance (log10)” value of the first is higher: 2.47 for the first, 0 for the second.

“GCTACTGCATGGACCGGTTTTCCCGGTAATCCGTATTTGCA (site GCTACTGCTCG)” and “GCTACTGCATGGACCGGTTTTCCCGGTAATCCGTATTTGCA (site GCTACTGCTGG)” are within 0.2 log units of each other in “recombinant UMI read abundance (log10)” value: 0.00835 for the first, 0 for the second.

First: GCTACTGCATGGACCGGTTTTCCCGGTAATCCGTATTTGCA (site GCTACTGCTTG)
Second: GCTACTGCATGGACCGGTTTTCCCGGTAATCCGTATTTGCG (site GCTACTGCTAG)
The “recombinant UMI read abundance (log10)” value of the first is higher: 2.78 for the first, 0.345 for the second.
